Data taken from patent US20100173943A1, “INSECTICIDAL COMPOSITIONS WITH IMPROVED ACTION” (BAYER CROPSCIENCE AG, priority 2007, published 2010).

Tests used:
[1] = tested on: cotton aphid (Aphis gossypii); assay: Aphis gossypii test (APHIGO spray treatment); assay type: in vivo; conditions: cotton leaves sprayed, 6 days; for pest or weed control at 20 ppm: 20 ppm a.i. alone; for pest or weed control at 100 ppm: 100 ppm a.i. alone
Description: Aphis gossypii Test (APHIGO Spray Treatment)
(§1) Solvent: 7 parts by weight of dimethylformamide
(§2) Emulsifier: 2 parts by weight of alkylaryl polyglycol ether
(§3) To prepare a ready-to-use active ingredient formulation, 1 part by weight of active ingredient is mixed with the specified amounts of solvent and emulsifier and the concentrate is diluted with emulsifier-containing water to the desired concentration. In the case that addition of ammonium salts, penetrants, or ammonium salts and penetrants is required, they are pipetted in each case into the finished preparation solution after dilution in a concentration of 1000 ppm each.
Cotton leaves (Gossypium hirsutum) highly infested by the cotton aphid (Aphis gossypii) are sprayed with an active ingredient formulation with the desired concentration.
After the desired period, the kill rate in % is determined. 100% means that all aphids have been killed; 0% means that no aphids have been killed.

[2] = tested on: green peach aphid (Myzus persicae); assay: Myzus persicae test (MYZUPE); assay type: in vivo; conditions: pepper plants sprayed, 6 days; for pest or weed control at 4 ppm: 4 ppm a.i. alone; for pest or weed control at 20 ppm: 20 ppm a.i. alone; for pest or weed control at 100 ppm: 100 ppm a.i. alone
Description: Myzus persicae Test (MYZUPE)
as §1, §2
as §3, with “prepare an appropriate” for “prepare a ready-to-use”, “the given” for “the specified”, “and emulsifier,” for “and emulsifier”, “are pippetted” for “are pipetted”
Pepper plants (Capsicum annuum) highly infested by the green peach aphid (Myzus persicaei) are treated by spraying with the active ingredient formulation in the desired concentration.
After the desired time, the kill rate in % is determined. 100% means that all animals have been killed; 0% means that no animals have been killed.

[3] = 0.8 ppm a.i. + AMS and RME 1000 ppm each
[4] = 0.8 ppm a.i. + ammonium sulphate 1000 ppm
[5] = 0.8 ppm a.i. + rapeseed oil methyl ester 1000 ppm
[6] = 20 ppm a.i. + AMS and RME 1000 ppm each
[7] = 20 ppm a.i. + ammonium sulphate 1000 ppm
[8] = 20 ppm a.i. + rapeseed oil methyl ester 1000 ppm
[9] = Aphis gossypii, 144 h, read-out: Kill in % after 6 days a.i.
[10] = 4 ppm a.i. + AMS and RME 1000 ppm each
[11] = 4 ppm a.i. + ammonium sulphate 1000 ppm
[12] = 4 ppm a.i. + rapeseed oil methyl ester 1000 ppm
[13] = Myzus persicae, 144 h, read-out: Kill in % after 6 days a.i.
[14] = 100 ppm a.i. + AMS and RME 1000 ppm each
[15] = 100 ppm a.i. + ammonium sulphate 1000 ppm
[16] = 100 ppm a.i. + rapeseed oil methyl ester 1000 ppm

Row | Compound | Kill in % after 6 days +AMS + RME [1, 6] | Kill in % after 6 days +AMS [1, 7] | Kill in % after 6 days +RME [1, 8] | pest or weed control at 20 ppm [1, 9] | Kill in % after 6 days +AMS + RME [2, 6] | Kill in % after 6 days +AMS [2, 7] | Kill in % after 6 days +RME [2, 8] | pest or weed control at 20 ppm [2, 13] | Kill in % after 6 days +AMS + RME [2, 14] | Kill in % after 6 days +AMS [2, 15] | Kill in % after 6 days +RME [2, 16] | pest or weed control at 100 ppm [2, 13] | Kill in % after 6 days +AMS + RME [1, 14] | Kill in % after 6 days +AMS [1, 15] | Kill in % after 6 days +RME [1, 16] | pest or weed control at 100 ppm [1, 9] | other results
1 | O=C1C=C(N(Cc2ccc(Cl)nc2)C2CC2)CO1 [Compound I-31, 4-{[(6-chloropyrid-3-yl)methyl](cyclopropyl)amino}furan-2(5H)-one] | – | – | – | – | – | – | – | – | – | – | – | – | – | – | – | – | Kill in % after 6 days +AMS + RME ([1]; 0.16 ppm a.i. + AMS and RME 1000 ppm each): 60%; Kill in % after 6 days +AMS ([1]; 0.16 ppm a.i. + ammonium sulphate 1000 ppm): 30%; Kill in % after 6 days +RME ([1]; 0.16 ppm a.i. + rapeseed oil methyl ester 1000 ppm): 15%; Kill in % after 6 days +AMS + RME [1, 3]: 80%; Kill in % after 6 days +AMS [1, 4]: 65%; Kill in % after 6 days +RME [1, 5]: 80%; pest or weed control at 0.16 ppm ([1]; Aphis gossypii, 144 h, 0.16 ppm a.i. alone, read-out: Kill in % after 6 days a.i.): 0%; pest or weed control at 0.8 ppm ([1]; Aphis gossypii, 144 h, 0.8 ppm a.i. alone, read-out: Kill in % after 6 days a.i.): 50%; Kill in % after 6 days +AMS + RME [2, 3]: 95%; Kill in % after 6 days +AMS [2, 4]: 80%; Kill in % after 6 days +RME [2, 5]: 100%; pest or weed control at 0.8 ppm ([2]; Myzus persicae, 144 h, 0.8 ppm a.i. alone, read-out: Kill in % after 6 days a.i.): 50%
2 | C=CCN(Cc1ccc(Cl)nc1)C1=CC(=O)OC1 [Compound I-32, 4-{allyl[(6-chloropyrid-3-yl)methyl]amino}furan-2(5H)-one] | 100% | 100% | 100% | 0% | 100% | 100% | 98% | 15% | – | – | – | – | – | – | – | – | Kill in % after 6 days +AMS + RME [2, 10]: 80%; Kill in % after 6 days +AMS [2, 11]: 60%; Kill in % after 6 days +RME [2, 12]: 70%; pest or weed control at 4 ppm [2, 13]: 0%
3 | C#CCN(Cc1ccc(Cl)nc1)C1=CC(=O)OC1 [Compound I-33, 4-{[(6-chloropyrid-3-yl)methyl](prop-2-yn-1-yl)amino}furan-2(5H)-one] | – | – | – | – | – | – | – | – | 95% | 45% | 95% | 40% | – | – | – | – | Kill in % after 6 days +AMS + RME [1, 10]: 15%; Kill in % after 6 days +AMS [1, 11]: 25%; Kill in % after 6 days +RME [1, 12]: 65%; pest or weed control at 4 ppm ([1]; Aphis gossypii, 144 h, 4 ppm a.i. alone, read-out: Kill in % after 6 days a.i.): 30%
4 | CCCN(Cc1ccc(Cl)nc1)C1=CC(=O)CCC1 [Compound I-34, 3-{[(6-chloropyrid-3-yl)methyl](propyl)amino}cyclohex-2-en-1-one] | – | – | – | – | – | – | – | – | 85% | 50% | 85% | 40% | 45% | 20% | 40% | 15% | –
5 | C#CCN(Cc1ccc(Cl)nc1)C1=CC(=O)CCC1 [Compound I-36, 3-{[(6-chloropyrid-3-yl)methyl](prop-2-yn-1-yl)amino}cyclohex-2-en-1-one] | 65% | 15% | 45% | 30% | 85% | 25% | 85% | 40% | – | – | – | – | 99% | 98% | 80% | 55% | –
6 | O=C1C=C(NCc2ccc(Cl)nc2)CCC1 [Compound I-37, 3-{[(6-chloropyrid-3-yl)methyl]amino}cyclohex-2-en-1-one] | 65% | 45% | 40% | 55% | 95% | 35% | 90% | 20% | – | – | – | – | – | – | – | – | –
7 | CN(Cc1ccc(Cl)nc1)C1=CC(=O)CCC1 [Compound I-38, 3-{[(6-chloropyrid-3-yl)methyl](methyl)amino}cyclohex-2-en-1-one] | – | – | – | – | – | – | – | – | – | – | – | – | 55% | 90% | 70% | 45% | Kill in % after 6 days +AMS + RME [2, 10]: 70%; Kill in % after 6 days +AMS [2, 11]: 5%; Kill in % after 6 days +RME [2, 12]: 65%; pest or weed control at 4 ppm [2, 13]: 5%
8 | CCN(Cc1ccc(Cl)nc1)C1=CC(=O)CCC1 [Compound I-39, 3-{[(6-chloropyrid-3-yl)methyl](ethyl)amino}cyclohex-2-en-1-one] | – | – | – | – | 30% | 25% | 80% | 20% | 95% | 90% | 95% | 85% | 60% | 45% | 60% | 45% | –
